The source of these data is PMC7802229, “Alkaloid and benzopyran compounds of Melicope latifolia fruit exhibit anti-hepatitis C virus activities” (BMC Complementary Medicine and Therapies, 2021).

≈ marks a conversion by molar mass, not a printed value. Entries after “also recorded” stand apart in the source; their conditions may differ. Where two headings read alike, the source gives them in different places.

One data set can be described thus: Cytotoxicity assay (MTT). The data set is classed as cell-based. Conditions: human, Huh7it-1 cells, mean ± SD of triplicate. The protocol: The cytotoxicity analysis was assessed using MTT assay 3-(4,5-Dimethylthiazol-2-Yl)-2,5-Diphenyltetrazolium Bromide. Solutions with extract concentrations of 1000, 400, 100, 50, 10, 1and […] were added onto Huh7it-1 cells in 96 well plates. After 46 h incubation, the medium was removed and 150 μl/well of 10% MTT was added then incubated for 4 h. The purple precipitates were then dissolved in dimethyl sulfoxide (DMSO). The purple solution was measured for UV absorbance using a microplate reader at 560 nm. SPSS probit was used to calculate the cytotoxic concentration 50% (CC50).

Data set [1] concerns murine leukemia P-388 cells. Details: method as in PMID 34498963. Conditions: cited from earlier work.
Another data set has as its system HCV JFH1a. The data set can be described thus: Antiviral activity assay (HCV infection of Huh7it-1 cells, titre by immunostaining). Format: cell-based, hepatitis C virus (genotype 2a). Conditions: for IC50: Hepatitis C virus, read-out: IC50 (anti-HCV activity); for Anti-HCV activity in words: highest concentration examined 50 μg/ml. How it is done:
Hepatocyte cells of Huh7it-1 [18] were cultivated in DMEM-Dulbeco’s Modiffied Eagle Medium (GIBCO Invitrogen). The medium was supplemented with 10% Fetal Bovine Serum (FBS, GIBCO-Invitrogen), 0.15 mg/ml kanamycin solution (SIGMA) and 1x Non-Essential Amino Acids (NEAA, GIBCO-Invitrogen). The cell culture was incubated in 5% CO2 at 37 °C. HCV JFH1a was propagated in Huh7it-1 suspended in 4 ml JFH1 suspension and 4 ml DMEM and was incubated at 37 °C in 5% CO2 for 4 h. The suspension was divided into eight flasks and the supernatant was harvested on the third day. The supernatant was concentrated and examined for its viral titration and stored at − 80 °C [10].
The hepatocyte cells of Huh7it-1 were seeded on a 48 well plate with a cell density of 5.4 × 10^4 and incubated for 24 h. […] The supernatant was removed and washed with medium and placed back into solutions containing the same concentrations of extract. The cultures were then incubated for 48 h and the supernatant was taken to examine the titer infection of the sample by immunostaining.
(§1) Viral titration was performed by serially diluting the culture supernatant in DMEM medium and inoculating onto Huh7it-1 cells. After incubation for 41 h, the cells were fixed by 3.7% formaldehyde and permeabilized with 0.5% triton X-100 for 10 min. First antibody (HCV infected serum patient) was used in 1% bovine serum albumin (BSA) /2%BlockIce/ phosphate buffer saline (PBS) with a 300x dilution then incubated for 60 min. Second antibody (HRP-Goat anti human) was used in 1%BSA/2%BlockIce/PBS with a 400x dilution (50 μl/well) and then incubated for 60 min at room temperature. To visualize the infectious foci, 3,3′-diaminobenzidine (DAB) staining (DAB Thermo Scientific, USA) was used for 15 min until a brown color was observed. SPSS probit was used to calculate inhibition concentration 50% (IC50) values.

The test system of data set [2] is N-formylmethionylleucylphenylalanine-induced superoxide production. Also noted: method as in PMID 17822293. Conditions: cited from earlier work.
Data set [3] concerns HCV life cycle (entry / post-entry). The data set can be described thus: Time-of-addition experiment. The data set is classed as cell-based. As to conditions: 25 μg/ml; for inhibition at 25 µg/mL: Hepatitis C virus, mean ± SD of triplicate; for Mode of action: time of addition. The protocol: A time addition experiment was performed to analyze the effect of the extract on the HCV life cycle. Entry inhibition was conducted by treated cells with extracts during viral inoculation to evaluate the inhibition in binding, entry and endocytosis. Post entry inhibition was conducted by treating cells with the extracts after viral inoculation. Supernatants were collected and viral titration and immunostaining was used to assess the mode of action.
as §1

The subject of another data set is HCV NS3 protein. The data set can be described thus: Immunoblotting of HCV NS3 protein in infected Huh7it cells. Format: cell-based, hepatitis C virus. Conditions: Huh7it-HCV infected cells MOI 0.5, various concentrations, 48 h. The protocol:
Huh7it-1 cells were lysed with Ripa buffer and the amount of protein was checked using a bichincronic acid (BCA) assay kit. The proteins were separated in (sodium dodecyl sulfate polyacrylamide gel electrophoresis (SDS-PAGE) gel and transferred onto a PVDF membrane (Millipore, Bed-ford, MA, USA). Five percent skimmed milk was added to block non-specific binding and incubated for 60 min. First antibody, HCV NS3-specific mouse monoclonal antibody (clone H23; Abcam, Cambridge, MA, USA) and glyceraldehyde-3-phosphate dehydrogenase (GAPDH) antibody (MBL) was added and incubated for 1 h. The 0.05% PBST was used for membrane washing. Second antibody, HRP-conjugated goat anti mouse immunoglobulin (MBL) was incubated for 1 h and the respective protein was visualized using Clarity Western ECL substrate (Biorad). The chemical luminescence was detected using ImageQuant LAS 4000 (GE healthcare).
Culture of Huh7it-HCV infected cells (MOI = 0.5) was treated with various concentration of compounds. After 48 h of incubation, cells were subjected to western blot analysis using monoclonal antibody against HCV NS3 protein. GAPDH served as an internal control
(In general: Immunoblotting shows a protein as a band on a membrane.)

In a further data set the test system is brine shrimp larvae. Details: method as in PMID 19483341. Conditions: cited from earlier work.
The mark [4] stands for this setting: Huh7it-1 cells, HCV JFH1a MOI 0.1, 48 h, mean ± SD of triplicate.
Setting [5] is: read-out: % Inhibition During inoculation.
The mark [6] stands for this setting: read-out: % Inhibition During+Post inoculation.
Where [7] appears, read: read-out: % Inhibition Post inoculation.

What is called CC50 is the concentration giving 50% cytotoxicity. The term IC50 denotes the concentration at which inhibition is half-maximal. The compound `COc1cc2c(c(OC)c1C(C)=O)C=CC(C)(C)O2` [Methylevodionol] displayed a 50% cytotoxic concentration (CC50) at 46 h in the data set “Cytotoxicity assay (MTT)” of 310 ± 2.5 µg/mL (≈ 1180 µM). Besides, in data set [1], the “IC50 against murine leukemia P-388 cells” value was 11.98 µg/mL (≈ 45.7 µM). Besides, the IC50 in the data set on HCV JFH1a (48 h) is above 50 µg/mL. The “Anti-HCV activity in words” value in the data set with HCV JFH1a (Huh7it-1 cells) is on record as “less active; also recorded: did not reveal anti-HCV activities”.

Compound `COc1cc(O)c(C(C)=O)c2c1C=CC(C)(C)O2` [Alloevodionol] gave a 50% cytotoxic concentration (CC50) at 46 h in the data set “Cytotoxicity assay (MTT)” above 1000 µg/mL. Moreover, the IC50 in the data set with HCV JFH1a (setting [4]) is 41.1 ± 3.1 µg/mL (≈ 166 µM). Besides, the “Anti-HCV activity in words” value with HCV JFH1a (Huh7it-1 cells) is “less active; also recorded: moderate inhibition”.

In the data set “Cytotoxicity assay (MTT)”, `COc1c2ccoc2c(OC)c2oc(=O)ccc12` [Isopimpinellin] gave a cytotoxic concentration (CC50) at 46 h above 1000 µg/mL. In addition, the 50% inhibitory concentration (IC50) with HCV JFH1a (48 h) is above 50 µg/mL. Moreover, in the data set on HCV JFH1a (Huh7it-1 cells), the “Anti-HCV activity in words” value was “less active; also recorded: did not reveal anti-HCV activities”.

For orientation: inhibition means the share of the control response that was lost under treatment. `Cn1c(=O)c2c(c3ccccc31)OC(C)(C)C=C2` [N-methylflindersine] displayed a CC50 at 46 h in “Cytotoxicity assay (MTT)” of 97 ± 3.3 µg/mL (≈ 402 µM). Moreover, the IC50 is below 12 µM in data set [2] and 3.8 ± 2.7 µg/mL (≈ 15.7 µM) with HCV JFH1a (setting [4]). The values for the inhibition at 25 µg/mL in data set [3] (setting [5]), in data set [3] (setting [6]) and in data set [3] (setting [7]) were 7.7 ± 1.8%, 83 ± 0.8% and 84.1 ± 2.9%, respectively. Further, the Mode of action result in data set [3] is recorded as “inhibit HCV in the post-entry step; also recorded: Post-entry inhibition”. Besides, the “IC50 against murine leukemia P-388 cells” value in data set [1] was 21.06 µg/mL (≈ 87.3 µM). Besides, the “HCV NS3 protein level (western blot)” value is “HCV NS3 protein reduction” with HCV NS3 protein, “decreased level of HCV NS3 protein expression” with HCV NS3 protein (listed as N-methylflidersine) and “decreased HCV NS3 protein level” in the data set with HCV NS3 protein (listed as N-methylflindersin). In addition, the “LD50 towards brine shrimp larvae” value with brine shrimp larvae was 1.39 µg/mL.

Take `COc1cc2oc(=O)ccc2c2c1C=CC(C)(C)O2` [Alloxanthoxyletin]: the half-maximal cytotoxic concentration (CC50) at 46 h in the data set “Cytotoxicity assay (MTT)” stood at 93 ± 3 µg/mL (≈ 360 µM). For the same compound, the IC50 with HCV JFH1a (setting [4]) stood at 21.7 ± 2.2 µg/mL (≈ 84.1 µM).

For `COc1c2c(c3c(c1C(C)=O)OC(C)(C)C=C3)OC(C)(C)C=C2` [O-methyloktadrenolon], it took 63 ± 2.3 µg/mL (≈ 200 µM) to reach half-maximal cytotoxicity in the data set “Cytotoxicity assay (MTT)” (CC50 at 46 h). Also, the inhibition at 25 µg/mL turned out to be 9.1 ± 8.5% in data set [3] (setting [5]), 98.4 ± 0.4% in data set [3] (setting [6]) and 98 ± 0.9% in data set [3] (setting [7]). Further, in data set [3], the Mode of action entry is given as “inhibit HCV in the post-entry step; also recorded: Post-entry inhibition”. Besides, the IC50 in the data set with HCV JFH1a (setting [4]) stood at 10.9 ± 1.2 µg/mL (≈ 34.7 µM). Further, the “HCV NS3 protein level (western blot)” value with HCV NS3 protein is “decreased HCV NS3 protein level”.
